For series [1], the system named is elastase-induced abdominal aortic aneurysms. Description: Elastase-induced rat model of abdominal aortic aneurysm. The note with it: 15 mg/kg/day; for inhibition of aortic dilatation induced by elastase perfusion: vs saline, FIG. 77. The format is in vivo. The source says: The following example is provided to assist in a further understanding of the present invention. The particular materials and conditions employed are intended to be further illustrative of the invention and are not limiting upon the reasonable scope thereof Male Wistar rats (350-400 g) were subjected to perfusion of an isolated segment of the infrarenal abdominal aorta with 50 units of porcine pancreatic elastase, using the method described by Anidjar et al. (Anidjar, S. Salzmann, J L, Generic, D, Lagneau, P, Camilleri, J P, and Michel, J B, “Elastase induced experimental aneurysms in rats,” Circulation 82:973-981 (1990); Halpern et al. (Halpern, V J. Liao, Nackman, G B, Gandhi, R H, Irizarry, E, Scholes, J V, Ramey, W G, and Tilson, M D, “The elastase infusion model of experimental aortic aneurysms: Synchrony of induction of endogenous protinases with matrix destruction and inflammatory cell response, “J. Vasc. Surg. […] Surg 23:336-346(1996)). This method is an accepted model for experimental induction of abdominal aortic aneurysms. The animals (n=6 rats in each group) were then treated with twice-daily subcutaneous injections of either saline vehicle (control), or various doses of doxycycline (Dox) or one of four different, non-antibiotic, chemically-modified tetracyclines (CMTs; CollaGenex, Inc., Newtown, Pa.). Aortic diameter (AD) was measured with microcalipers before and after elastase perfusion, and just prior to sacrifice on day 7. Abdominal aortic aneurysms were defined as an increase in final AD to at least twice that measured before perfusion (≥100% increase). Aortic tissues from two animals in each group were perfusion-fixed with 10% neutral buffered formalin, embedded in paraffin, and stained with Verhoeff-van Geisen (VVG) for elastin. Tissues from the remaining animals were extracted, normalized to total protein, and analyzed by gelatin substrate zymography as described (Thompson et al. 1995; Halpern et al. 1994; Petrinec 1996).

Series [2] can be described thus: Liquid formulations of water insoluble rapamycins: concentration (HPLC) and visual observation. The format is physicochemical. An excerpt: In accordance with exemplary embodiments of the present invention, a series of liquid formulations were developed for the local or regional delivery of water insoluble compounds such as sirolimus and its analogs, including CCI-779, ABT-578 and everolimus, through weeping balloons and catheter injection needles. […] These liquid formulations increase the apparent solubility of the pharmacologically active but water insoluble compounds by two to four orders. of magnitude as compared to the solubility limits of the compounds in water. These liquid formulations rely on the use of a very small amount of organic solvents such as Ethanol (typically less than two percent) and a larger amount of safe-amphiphilic (of or relating to a molecule having-a polar; water soluble group attached to a non-polar, water insoluble […]) excipients such as polyethylene glycol (PEG 200, PEG 400) and vitamin E TPGS to enhance the solubility of the compounds. These liquid formulations of highly. water insoluble compounds are stable and readily flowable at room temperature. Certain excipients, such as Vitamin E TPGS and BHT may be utilized to enhance the storage stability of sirolimus compounds through their anti-oxidation properties. […]

Series [3] in a line: In vivo release kinetics from stent coatings in porcine pharmacokinetics studies. The source says: The topcoat is two hundred micro grams.
The basecoat is applied to Bx Velocity® stents and implanted into Yorkshire pigs.
Another critical parameter for the performance of the thrombus resistance of a device coated with cilostazol is the duration of the drug release from the coating. This is of particular significance in the two weeks after device implantation. […] The purpose of the porcine PK study is to assess the local pharmacokinetics of a drug eluting stent at a given implantation time. Normally three stents are implanted in three different coronary arteries in a pig for a given time point and then retrieved for total drug recovery analysis. The stents are retrieved at predetermined time points; namely, 1, 3 and 8 days. The stents are extracted and the total amount of drug remaining on the stents is determined by analysis utilizing HPLC (high performance liquid chromatography) for total drug amount. The difference between the original amount of drug on the stent and the amount of drug retrieved at a given time represents the amount of drug released in that period. The continuous release of drug into surrounding arterial tissue is what prevents the neointimal growth and restenosis in the coronary artery. A normal plot represents the percentage of total drug released (%, y-axis) vs. time of implantation (day, x-axis). […] In this exemplary configuration, the stent 8600 is coated with two layers. The first layer 8602 comprises a combination of sirolimus, cilostazol and a copolymer matrix of EVA/BMA. The second layer or diffusion overcoat 8604 comprises only BMA. More specifically, in this embodiment, the first layer 8602 comprises a combination of sirolimus and cilastazol that is forty-five (45) percent by weight of the total weight of the first layer 8602 and an EVA/BMA copolymer matrix that is fifty-five (55) percent by weight of the total weight of the first layer 8602. The diffusion overcoat comprises one hundred (100 μg) micrograms of BMA.
Pigs are an established animal species for intravascular stent studies and accepted for such studies by the appropriate regulatory agencies. This in vivo study utilized male pigs of the species Sus Scrofa and strain Yoorkshire pigs. S.M.A.R.T.™ stents, available from Cordis Corporation, were placed into the iliac and femoral arteries, PALMAZ® GENESIS™ stents, available from Cordis Corporation, were placed in the renal arteries and CYPHER™ stents, available from Cordis Corporation, were placed in the coronary arteries.

Series [4] relates to human coronary artery smooth muscle cells. Description: Anti-proliferative activity in non-synchronized cultured human coronary artery smooth muscle cells stimulated with two percent fetal bovine serum. The format is cell-based. The note with it: for effect of addition on the anti-proliferative rapamycin dose response curve: mycophenolic acid zero to one thousand nanomolar (FIG. 52), cladribine zero to nine hundred nanomolar (FIG. 57). The source says:
The multiple curves represent various concentrations of mycophenolic acid ranging from zero to one thousand nanomolar concentrations.
FIG. 58 illustrates, in graphical format, the anti-proliferative activity of cladribine in non-synchronized cultured human coronary artery smooth muscle cells stimulated with two percent fetal bovine serum.
The multiple curves represent various concentrations of cladribine ranging from zero to nine hundred nanomolar concentrations.

For series [5] the test system is unchanged. Description: Anti-proliferative activity in synchronized cultured human coronary artery smooth muscle cells stimulated with two percent fetal bovine serum. The format is cell-based. The note with it: topotecan to 300 nanomolar (FIG. 64), etoposide to eight hundred nanomolar (FIG. 65), Panzem to 100 micromolar (FIG. 68). An excerpt: (§1) The multiple curves represent various concentrations of topotecan ranging from zero to three hundred nanomolar concentrations.
(§2) The multiple curves represent various concentrations of etoposide ranging from zero to eight hundred nanomolar concentrations.
The multiple curves represent various concentrations of Panzem® ranging from zero to 100 micromolar concentrations.

Series [6] is described as follows: Cell viability assay (cytotoxicity). The format is cell-based.
From the text: as §1, §2

Data on 10 molecules can be found in US20070173787A1, “Thin-film nitinol based drug eluting stent” (priority 2005, published 2007).

Take “4-dedimethylamino-12a-deoxytetracycline [CMT-7]”: in series [1], the “relative efficacy in suppressing aneurysmal dilatation compared to Dox at the same dose” value (“relative efficacy” for short) is 92% and the “inhibition of aortic dilatation induced by elastase perfusion” value (shortened to “inhibition of aortic dilatation induced”) is listed as “statistically significant”.

For the molecule `CO[C@H]1C[C@@H]2CC[C@@H](C)[C@@](O)(O2)C(=O)C(=O)N2CCCC[C@H]2C(=O)O[C@H]([C@H](C)C[C@@H]2CC[C@@H](OC(=O)C(C)(CO)CO)[C@H](OC)C2)CC(=O)[C@H](C)/C=C(\C)[C@@H](O)[C@@H](OC)C(=O)[C@H](C)C[C@H](C)/C=C/C=C/C=C/1C` [CCl-779], the “concentration in the final solution (HPLC assay)” value in series [2] (ethanol (less than two percent), Vitamin E TPGS and water) is 15000 µg/mL.

For the molecule `NC(=O)C1=C(O)C[C@@H]2C[C@@H]3Cc4cccc(O)c4C(=O)C3=C(O)[C@]2(O)C1=O` [CMT-3, 6-demethyl-6-deoxy-4-dedimethylaminotetracycline], in series [1], the “relative efficacy” value came to 92% and the “inhibition of aortic dilatation induced” value was “statistically significant”.

`CC1(O)c2c(Cl)ccc(O)c2C(=O)C2=C(O)C3(O)C(=O)C(C(N)=O)=C(O)CC3CC21` (centres unmarked) [CMT-4, 4-dedimethylamino-7-chlorotetra-cycline]: in series [1], the “relative efficacy” value is listed as 75% and the “inhibition of aortic dilatation induced” value was “did not reach statistical significance”.

With `C[C@H]1c2cccc(O)c2C(O)=C2C(=O)[C@]3(O)C(O)=C(C(N)=O)C(=O)C[C@@H]3[C@@H](O)[C@@H]21` [CMT-8, 6-α-deoxy-5-hydroxy-4-dedimethylaminotetracycline], in series [1], the “relative efficacy” value is on record as 105% and the “inhibition of aortic dilatation induced” value was “statistically significant”.

Consider `Nc1nc(Cl)nc2c1ncn2[C@H]1C[C@H](O)[C@@H](CO)O1` [Cladribine, 2-chlorodeoxyadenosine], for which, in series [3] (EVA/BMA basecoat with rapamycin and cladribine, BMA topcoat, FIGS. 62, 63), the “in vivo elution from the polymeric stent coating, comparison” value is “elutes more rapidly than rapamycin”. Further, the “inhibition of human coronary artery smooth muscle cell proliferation” value in series [4] (FIG. 58) is “completely inhibits”. In addition, the “effect of addition on the anti-proliferative rapamycin dose response curve” value (from here on “effect of addition”) in series [4] is listed as “potentiate the anti-proliferative activity of rapamycin”.

Turning to `COc1cc([C@@H]2c3cc4c(cc3[C@@H](O[C@@H]3O[C@@H]5CO[C@@H](C)O[C@H]5[C@H](O)[C@H]3O)[C@H]3COC(=O)[C@H]23)OCO4)cc(OC)c1O` [etoposide], the “effect of addition” value in series [5] is recorded as “increases the percent inhibition of rapamycin alone”. Further, the “cytotoxicity in cell viability assay” value in series [6] (at concentrations up to ten micromolar) is “non-cytotoxic”.

As for `COc1c(C)c2c(c(O)c1C/C=C(\C)CCC(=O)O)C(=O)OC2` [mycophenolic acid], in series [3] (EVA/BMA basecoat with rapamycin and mycophenolic acid, BMA topcoat, FIGS. 53, 54), the “in vivo release from the basecoat, comparison” value is “elutes more completely over a shorter duration than the rapamycin”. Also, the “effect of addition” value in series [4] was “potentiates the anti-proliferative activity of rapamycin”.

With `CO[C@H]1C[C@@H]2CC[C@@H](C)[C@@](O)(O2)C(=O)C(=O)N2CCCC[C@H]2C(=O)O[C@H]([C@H](C)C[C@@H]2CC[C@@H](O)[C@H](OC)C2)CC(=O)[C@H](C)/C=C(\C)[C@@H](O)[C@@H](OC)C(=O)[C@H](C)C[C@H](C)/C=C/C=C/C=C/1C` [rapamycin], in series [3] (PVDF basecoat with rapamycin and mycophenolic acid, PVDF topcoat, FIG. 56), the “in vivo release rate, comparison” value is given as “slower release rate than that of mycophenolic acid”. Further, the “peak elution release at three days” value in series [3] (PVDF/HFP (60/40) and rapamycin basecoat with 167 microgram PVDF/HFP topcoat, curve 4902) is “greater than seventy-five”; in series [3] (PVDF/HFP (60/40) and rapamycin basecoat with 490 microgram BMA topcoat, curve 4912) it was “less than fifty”. Further, the “drug remaining in the drug coating” value in series [3] (after eight (8) days of implantation, single layer sirolimus/cilostazol EVA/BMA coating with 100 μg BMA overcoat (FIG. 86), FIG. 84) is given as roughly 80%. Moreover, in series [2] (4 mg/ml PEG 200 formulation), the “concentration relative to the solubility of sirolimus in water” value is recorded as “four hundred to about one thousand”.

As for `CC[C@@]1(O)C(=O)OCc2c1cc1n(c2=O)Cc2cc3c(CN(C)C)c(O)ccc3nc2-1` [topotecan], in series [5], the “effect of addition” value is given as “potentiate the anti-proliferative activity of rapamycin”. In addition, in series [6] (at concentrations up to one micromolar), the “cytotoxicity in cell viability assay” value is given as “non-cytotoxic”.
